The conditions of data set [1]: 101 kPa, Liquid, Vibrating tube method.
The nature of data set [2]: xn = mol fraction of the nth substance listed. The following applies: 283.15 K; 101 kPa; Liquid; Vibrating tube method; x2 = 0.

Numbers after ± are expanded uncertainties.

Among the data in the NIST ThermoML archive (doi:10.1016/j.jct.2009.06.016) are mass density values, retold here.

Broadly, the mass density is mass per unit of volume.

On to `CCCOCC(C)O` (configuration not stated) [1-propoxy-2-propanol], for which the mass density in data set [1] (283.15 K) worked out at 894.462 ± 0.23 kg/m3; in data set [1] (288.15 K), 889.963 ± 0.23 kg/m3; in data set [1] (293.15 K), 885.456 ± 0.23 kg/m3; in data set [1] (298.15 K), 880.837 ± 0.23 kg/m3; in data set [1] (303.15 K), 876.279 ± 0.23 kg/m3.
As to `O` [water], in data set [1] (283.15 K), the mass density came to 999.699 ± 0.05 kg/m3.
In the case of `O` [water] + CCCOCC(C)O, in data set [2], the mass density amounted to 999.699 ± 0.05 kg/m3.
